Read-outs that look alike come from different tables or passages of the source.
How the values were obtained:
[1] = system: HORSS: barley, including spring and winter (Hordeum vulgare); assay: Post-emergent Test III, herbicidal activity in wheat and barley; assay type: in vivo; conditions: for pest or weed control at 35 g/ha / pest or weed control at 70 g/ha: Hordeum vulgare, post-emergence, 504 h; for pest or weed control at 35 g/ha: 35 g ai/ha; for pest or weed control at 70 g/ha: 70 g ai/ha; for GR20 HORSS: probit analysis
Summary of the method: (§1)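 GR20, GR50, GR80 and GR90 come from probit analysis of visual injury scores (0 = none, 100 = complete kill) taken 21 d after treatment. Foliar application was by track sprayer delivering 187 L/ha at five rates, from high down to 1/16×, onto greenhouse plants at the 2–3 leaf stage, with solvent-blank controls.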

[2] = system: KCHSC: kochia (Kochia scoparia); assay: as above; assay type: in vivo; conditions: for pest or weed control at 35 g/ha / pest or weed control at 70 g/ha: Bassia scoparia, post-emergence, 504 h; for pest or weed control at 35 g/ha: 35 g ai/ha; for pest or weed control at 70 g/ha: 70 g ai/ha; for GR50 KCHSC / GR80 KCHSC: probit analysis
Summary of the method: as §1

[3] = system: MATSS: scented mayweed (Matricaria chamomilla), pineappleweed (Matricaria matricarioides); assay: as above; assay type: in vivo; conditions: for pest or weed control at 35 g/ha / pest or weed control at 70 g/ha: Matricaria chamomilla, post-emergence, 504 h; for pest or weed control at 35 g/ha: 35 g ai/ha; for pest or weed control at 70 g/ha: 70 g ai/ha; for GR50 MATSS / GR80 MATSS: probit analysis
Summary of the method: as §1

[4] = system: TRZSS: wheat, including spring and winter (Triticum aestivum); assay: as above; assay type: in vivo; conditions: for pest or weed control at 35 g/ha / pest or weed control at 70 g/ha: Triticum aestivum, post-emergence, 504 h; for pest or weed control at 35 g/ha: 35 g ai/ha; for pest or weed control at 70 g/ha: 70 g ai/ha; for GR20 TRZSS: probit analysis
Summary of the method: as §1

[5] = system: APESV: bentgrass (Apera spica-venti); assay: as above; assay type: in vivo; conditions: for pest or weed control at 35 g/ha / pest or weed control at 70 g/ha: Apera spica-venti, post-emergence, 504 h, read-out: Visual Growth Reduction (%) 21 Days After Application APESV; for pest or weed control at 35 g/ha: 35 g ai/ha; for pest or weed control at 70 g/ha: 70 g ai/ha; for GR50 APESV / GR80 APESV: probit analysis
Summary of the method: as §1

[6] = system: LOLSS: ryegrass including, Italian ryegrass (Lolium multiflorum), rigid ryegrass (Lolium rigidum), annual ryegrass (Lolium multiflorum subsp. Gaudini); assay: as above; assay type: in vivo; conditions: probit analysis
Summary of the method: as §1

[7] = system: SETVI: green foxtail (Setaria viridis); assay: as above; assay type: in vivo; conditions: Table 9, 21 d; for pest or weed control at 35 g/ha / pest or weed control at 70 g/ha: Setaria viridis, post-emergence, 504 h, post-emergent, read-out: Visual Growth Reduction (%) 21 Days After Application SETVI; for pest or weed control at 35 g/ha: 35 g ai/ha; for pest or weed control at 70 g/ha: 70 g ai/ha; for GR50 SETVI: dose for 50 percent growth reduction; for GR50 SETVI / GR80 SETVI: probit analysis; for GR80 SETVI: dose for 80 percent growth reduction
Summary of the method: as §1

[8] = as above; assay type: in vivo, Lolium multiflorum, Lolium rigidum; conditions: Lolium multiflorum, post-emergence, 504 h, read-out: Visual Growth Reduction (%) 21 Days After Application LOLSS; for pest or weed control at 35 g/ha: 35 g ai/ha; for pest or weed control at 70 g/ha: 70 g ai/ha
Summary of the method: as §1

[9] = system: ALOMY: black-grass (Alopecurus myosuroides); assay: as above; assay type: in vivo
Summary of the method: as §1

LAMSS = assay: as above; assay type: in vivo
Summary of the method: as §1

[10] = 21 days after application, read-out: Visual Gorowth Reduction (%) 21 days After Application HORSS
[11] = dose for 20 percent growth reduction (crop), 21 days after application
[12] = 21 days after application, read-out: Visual Gorowth Reduction (%) 21 days After Application KCHSC
[13] = dose for 50 percent growth reduction, 21 days after application
[14] = dose for 80 percent growth reduction, 21 days after application
[15] = 21 days after application, read-out: Visual Gorowth Reduction (%) 21 days After Application MATSS
[16] = 21 days after application, read-out: Visual Gorowth Reduction (%) 21 days After Application TRZSS
[17] = Table 9, dose for 50 percent growth reduction, 21 d
[18] = Table 9, dose for 80 percent growth reduction, 21 d
[19] = Table 9, post-emergent, 21 d, read-out: Visual Growth Reduction (%) 21 Days After Application HORSS
[20] = Table 9, dose for 20 percent growth reduction, 21 d
[21] = Table 9, post-emergent, 21 d, read-out: Visual Growth Reduction (%) 21 Days After Application KCHSC
[22] = Table 9, post-emergent, 21 d, read-out: Visual Growth Reduction (%) 21 Days After Application TRZSS
[23] = dose for growth reduction of 50 percent, 21 days after application
[24] = dose for growth reduction of 80 percent, 21 days after application
[25] = probit analysis, dose for growth reduction of 50 percent, 21 days after application
[26] = probit analysis, dose for growth reduction of 80 percent, 21 days after application
[27] = read-out: Visual Growth Reduction (%) 21 Days After Application KCHSC
[28] = read-out: Visual Growth Reduction (%) 21 Days After Application MATSS

In the case of `COC(=O)c1nc(-c2ccc(Br)c(F)c2)c(F)c(N)c1Cl` [Compound 49], the pest or weed control at 35 g/ha [1, 10] is reported as 75 to 84%, the pest or weed control at 70 g/ha [1, 10] is reported as 85 to 94% and the “GR20 HORSS” value [1, 11] is reported as 1 g ai/ha. For the same molecule, the pest or weed control at 35 g/ha [2, 12] was 85 to 94%, the pest or weed control at 70 g/ha [2, 12] was 85 to 94% and the “GR50 KCHSC” value [2, 13] was 4 g ai/ha. For the same molecule, the “GR80 KCHSC” value [2, 14] was 18 g ai/ha, the pest or weed control at 35 g/ha [3, 15] was 60 to 74% and the pest or weed control at 70 g/ha [3, 15] was 75 to 84%. For the same molecule, the “GR50 MATSS” value [3, 13] was 15 g ai/ha, the “GR80 MATSS” value [3, 14] was 93 g ai/ha and the pest or weed control at 35 g/ha [4, 16] was 75 to 84%. For the same molecule, the pest or weed control at 70 g/ha [4, 16] was 85 to 94% and the “GR20 TRZSS” value [4, 11] was 1 g ai/ha.
With `COc1c(N)nc(-c2ccc(C(F)(F)F)c(F)c2F)nc1C(=O)O` [Compound 76] the pest or weed control at 35 g/ha ([5]; Table 9, post-emergent, 21 d) was 75 to 84%, the pest or weed control at 70 g/ha ([5]; Table 9, post-emergent, 21 d) was 85 to 94% and the “GR50 APESV” value [5, 17] was 27 g ai/ha. For the same molecule, the “GR80 APESV” value [5, 18] was 52 g ai/ha, the pest or weed control at 35 g/ha [1, 19] was 60 to 74% and the pest or weed control at 70 g/ha [1, 19] was 60 to 74%. The “GR20 HORSS” value [1, 20] was 6 g ai/ha, the “GR50 LOLSS” value [6, 17] was 53 g ai/ha and the “GR80 LOLSS” value [6, 18] was 133 g ai/ha. For the same molecule, the pest or weed control at 35 g/ha [2, 21] was 0 to 29%, the pest or weed control at 70 g/ha [2, 21] was 45 to 59% and the “GR50 KCHSC” value [2, 17] was 74 g ai/ha. For the same molecule, the “GR80 KCHSC” value [2, 18] was 132 g ai/ha, the pest or weed control at 35 g/ha [7] was 45 to 59% and the pest or weed control at 70 g/ha [7] was 60 to 74%. For the same molecule, the “GR50 SETVI” value [7] was 42 g ai/ha, the “GR80 SETVI” value [7] was 87 g ai/ha and the “GR20 TRZSS” value [4, 20] was 4 g ai/ha. It also gave a pest or weed control at 35 g/ha [4, 22] of 75 to 84%, a pest or weed control at 70 g/ha [4, 22] of 85 to 94% and a pest or weed control at 35 g/ha ([8]; Table 9, post-emergent, 21 d) of 30 to 44%. For the same molecule, the pest or weed control at 70 g/ha ([8]; Table 9, post-emergent, 21 d) was 45 to 59%.
With `Nc1c(F)c(-c2ccc(C(F)(F)F)c(F)c2F)nc(C(=O)O)c1Cl` [Compound 167] the pest or weed control at 35 g/ha [5] was 75 to 84%, the pest or weed control at 70 g/ha [5] was 85 to 94% and the “GR50 APESV” value [5, 23] was 20 g ai/ha. For the same molecule, the “GR80 APESV” value [5, 24] was 46 g ai/ha, the pest or weed control at 35 g/ha ([9]; Alopecurus myosuroides, post-emergence, 504 h, 35 g ai/ha, read-out: Visual Growth Reduction (%) 21 Days After Application ALOMY) was 30 to 44% and the pest or weed control at 70 g/ha ([9]; Alopecurus myosuroides, post-emergence, 504 h, 70 g ai/ha, read-out: Visual Growth Reduction (%) 21 Days After Application ALOMY) was 60 to 74%. The “GR50 ALOMY” value [9, 25] was 57 g ai/ha, the “GR80 ALOMY” value [9, 26] was 119 g ai/ha and the pest or weed control at 35 g/ha (LAMSS; post-emergence, 504 h, 35 g ai/ha, read-out: Visual Growth Reduction (%) 21 Days After Application LAMSS) was 95 to 100%. The pest or weed control at 70 g/ha (LAMSS; post-emergence, 504 h, 70 g ai/ha, read-out: Visual Growth Reduction (%) 21 Days After Application LAMSS) was 95 to 100%, the “GR50 LAMSS” value (LAMSS; [25]) was 1 g ai/ha and the “GR80 LAMSS” value (LAMSS; [26]) was 1 g ai/ha. The “GR50 LOLSS” value [6, 23] was >140 g ai/ha, the “GR80 LOLSS” value [6, 24] was >140 g ai/ha and the pest or weed control at 35 g/ha [2, 27] was 60 to 74%. For the same molecule, the pest or weed control at 70 g/ha [2, 27] was 75 to 84%, the “GR50 KCHSC” value [2, 23] was 23 g ai/ha and the “GR80 KCHSC” value [2, 24] was 52 g ai/ha. For the same molecule, the pest or weed control at 35 g/ha [3, 28] was 75 to 84%, the pest or weed control at 70 g/ha [3, 28] was 85 to 94% and the “GR50 MATSS” value [3, 23] was 24 g ai/ha. For the same molecule, the “GR80 MATSS” value [3, 24] was 48 g ai/ha, the pest or weed control at 35 g/ha [8] was 0 to 29% and the pest or weed control at 70 g/ha [8] was 0 to 29%.
In the case of `Nc1cc(-c2ccc(C(F)(F)F)c(F)c2F)nc(C(=O)O)c1Cl` [Compound 172, 4-amino-3-chloro-6-(2,3-difluoro-4-(trifluoromethyl)phenyl)picolinic acid], the pest or weed control at 35 g/ha ([5]; Table 9, post-emergent, 21 d) is reported as 30 to 44%, the pest or weed control at 70 g/ha ([5]; Table 9, post-emergent, 21 d) is reported as 60 to 74% and the “GR50 APESV” value [5, 17] is reported as 53 g ai/ha. For the same molecule, the “GR80 APESV” value [5, 18] was 124 g ai/ha, the pest or weed control at 35 g/ha [1, 19] was 60 to 74% and the pest or weed control at 70 g/ha [1, 19] was 60 to 74%. The “GR20 HORSS” value [1, 20] was 3 g ai/ha, the “GR50 LOLSS” value [6, 17] was >140 g ai/ha and the “GR80 LOLSS” value [6, 18] was >140 g ai/ha. The pest or weed control at 35 g/ha [2, 21] was 60 to 74%, the pest or weed control at 70 g/ha [2, 21] was 60 to 74% and the “GR50 KCHSC” value [2, 17] was 38 g ai/ha. For the same molecule, the “GR80 KCHSC” value [2, 18] was 73 g ai/ha, the pest or weed control at 35 g/ha [7] was 60 to 74% and the pest or weed control at 70 g/ha [7] was 75 to 84%. The “GR50 SETVI” value [7] was 25 g ai/ha, the “GR80 SETVI” value [7] was 56 g ai/ha and the “GR20 TRZSS” value [4, 20] was 1 g ai/ha. The pest or weed control at 35 g/ha [4, 22] was 75 to 84%, the pest or weed control at 70 g/ha [4, 22] was 75 to 84% and the pest or weed control at 35 g/ha ([8]; Table 9, post-emergent, 21 d) was 0 to 29%. It also gave a pest or weed control at 70 g/ha ([8]; Table 9, post-emergent, 21 d) of 0 to 29%.
